Test results reported in patent US20250062039A1, “ESTIMATION OF PHARMACOKINETIC (PK) PARAMETERS OF DRUG CANDIDATES USING UNIVERSAL PK PARAMETERS BOUNDS” (Tata Consultancy Services Limited, priority 2023, published 2025).
Values joined by “and” are separate entries in the source; they are usually repeats but may differ in a detail not shown here. Equal entries are not always repeated. Where two headings read alike, the source gives them in different places.

How the values were obtained:
[1] = Published cocaine pharmacokinetics in humans, IV bolus: parameters and PCT profile (Barnett et al. 1981)
[2] = cited from earlier work; for Conc (plasma concentration): 200 mg intravenously, subject 68 kg; for Alpha / A: individual subjects W
[3] = IV infusion 10 mg; cited from earlier work
clinical [4] = settings: human, in vivo, iv
clinical [5] = settings: human, in vivo, iv; for half-life: Selected Parameter Value
[6] = 2 compartment model, cited from earlier work
in vivo = settings: non-human primates, iv, 20 mg/kg
[7] = in vivo, iv, 20 mg/kg
[8] = 200 mg IV, two compartment model
[9] = IV bolus, Dose = 100 mg, X, Y, listed as Cocain
[10] = IV bolus, Dose = 200 mg, Z, listed as Cocain
[11] = IVBolus 200 mg, bi-exponential model (Table 6)
[12] = IV Infusion, 4 mg for 5 minutes

COC(=O)[C@H]1[C@@H](OC(=O)c2ccccc2)C[C@@H]2CC[C@H]1N2C [Cocaine]
Alpha, Selected Value ([1]; maximum over all subjects and doses 100, 200 mg (Rule 7)): 0.0532 min⁻¹
Beta, Selected Value ([1]; maximum over all subjects and doses (Rule 7)): 0.00842 min⁻¹
A, Published parameter value [2, 8]: 2.482 µg/mL
Alpha, Published parameter value [2, 8]: 3.192 h⁻¹
B, Published parameter value [2, 8]: 1.997 µg/mL
Beta, Published parameter value [2, 8]: 0.505 h⁻¹
Conc (plasma concentration) ([2]; Time 0.08333333 hr): 3868 ng/mL
Conc (plasma concentration) ([2]; Time 0.33333333 hr): 2476 ng/mL
Conc (plasma concentration) ([2]; Time 0.65 hr): 2031 ng/mL
Conc (plasma concentration) ([2]; Time 1 hr): 1222 ng/mL
Conc (plasma concentration) ([2]; Time 2.13333333 hr): 696 ng/mL
Conc (plasma concentration) ([2]; Time 3.2 hr): 453 ng/mL
Conc (plasma concentration) ([2]; Time 4.16666667 hr): 219 ng/mL
Conc (plasma concentration) ([2]; Time 5.15 hr): 145 ng/mL
Conc (plasma concentration) ([2]; Time 6.15 hr): 94 ng/mL
Alpha ([2]; IV bolus, Dose = 100 mg, X, Y): 0.0135 min⁻¹ and 0.0172 min⁻¹ and 0.0147 min⁻¹
A [2, 9]: 860 ng/mL and 558 ng/mL and 1139 ng/mL
Alpha [2, 9]: 0.0135 min⁻¹ and 0.0172 min⁻¹ and 0.0147 min⁻¹
B ([2]; IV bolus, Dose = 200 mg, Sub-W): 1997 ng/mL
Beta ([2]; IV bolus, Dose = 200 mg, Sub-W): 0.00842 min⁻¹
Alpha ([2]; IV bolus, Dose = 200 mg, Z): 0.0532 min⁻¹ and 0.00879 min⁻¹
A [2, 10]: 2482 ng/mL and 1432 ng/mL
Alpha [2, 10]: 0.0532 min⁻¹ and 0.00879 min⁻¹
A, Value [2, 11]: 2482 ng/mL
Alpha, Value [2, 11]: 0.05 min⁻¹
B, Value [2, 11]: 1997 ng/mL
Cmax ([2]; IVBolus 200 mg): (Cmax = 3868) ng/ml

CC(C)NCC(O)COc1ccc(CCOCC2CC2)cc1 (stereo not shown) [Betaxolol]
AUC, Mean Value [3]: 610 ng·h/mL
CL, Mean Value [3]: 15.1 L/h
Lambda_Z, Mean Value [3]: 0.0415 h⁻¹
Vz, Mean Value [3]: 5.07 L/kg
Vd (clinical [4]): 5.81 L/kg
clearance (clinical [4]): 300 mL/min

OC(CCN1CCCCC1)(c1ccccc1)C1CC2C=CC1C2 (stereo not shown) [Biperiden]
clearance (clinical [5]): 24.8 mL/min/kg
half-life (clinical [5]; T1/2 Alpha): 1.7 h
half-life (clinical [5]; T1/2 beta): 28.2 h
AUC, Value [6, 12]: 62.8 ng·h/mL
CL, Value [6, 12]: 24 mL/min/kg
K12, Value [6, 12]: 0.1910 h⁻¹
K21, Value [6, 12]: 0.06 h⁻¹
T1/2 Alpha, Value [6, 12]: 1.5 h
T1/2 beta, Value [6, 12]: 24.3 h
V1, Value [6, 12]: 2.6 L/kg
Ka, Value ([6]; Oral 4 mg): 2.18 h⁻¹

COc1cc(NCc2ccc3nc(N)nc(N)c3c2C)cc(OC)c1OC [Trimetrexate]
clearance (in vivo): 4.2 mL/min
half-life (in vivo; T1/2 alpha, Converted value): 0.305 h
half-life (in vivo; T1/2 alpha, Selected Parameter Value): 0.305 h
half-life (in vivo; T1/2 beta, Converted value): 1.43 h
half-life (in vivo; T1/2 beta, Selected Parameter Value): 1.43 h
K10, Converted value ([7]; non-human primate): 3.096 h⁻¹
K10, Selected Parameter Value ([7]; non-human primate): 0.0516 min⁻¹
K12, Converted value ([7]; non-human primates): 0.87 h⁻¹
K12, Selected Parameter Value ([7]; non-human primates): 0.0145 min⁻¹
K13, Converted value ([7]; non-human primates): 0.0075 h⁻¹
K13, Selected Parameter Value ([7]; non-human primates): 0.000125 min⁻¹
K21, Converted value ([7]; non-human primates): 1.296 h⁻¹
K21, Selected Parameter Value ([7]; non-human primates): 0.0216 min⁻¹
K31, Converted value ([7]; non-human primates): 0.093 h⁻¹
K31, Selected Parameter Value ([7]; non-human primates): 0.00155 min⁻¹
V1, Converted value ([7]; non-human primates): 0.15 L/kg
V1, Selected Parameter Value ([7]; non-human primates): 0.15 L/kg
V2, Converted value ([7]; non-human primates): 0.079 L/kg
V2, Selected Parameter Value ([7]; non-human primates): 0.079 L/kg
cl, Converted value ([7]; non-human primates): 0.252 L/h
